Test results reported in US20150291645A1, “ISOACTEOSIDE DERIVATIVE AND USE THEREOF” (Sinphar Pharmaceutical Co., Ltd., priority 2014, published 2015).

Assays:
β-amyloid peptides (Aβ) = conditions: position of the caffeoyl group (sixth vs fourth), WO 2011/157059 A1; cited from earlier work
Aβ40 = Aβ40 (Homo sapiens, UniProt P05067); assay: Aβ40 aggregation, thioflavin T assay; type: biochemical; conditions: for inhibition at 20 µM / inhibition at 200 µM: 4 hours 37° C.; for inhibition at 20 µM: FIG. 3A; for inhibition at 200 µM: FIG. 3B; for inhibit Aβ40 accumulation (ThT assay): summary of Experimental example 3
Aβ40, sequence (P05067 672-711 limits assumed): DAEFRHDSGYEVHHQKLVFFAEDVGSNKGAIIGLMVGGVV
Description: Aβ40 aggregation: The Aβ40 stock was redissloved in DMSO to 10 mg/mL. Each group included 0.5 μL of 10 mg/mL Aβ40 and 4.5 μL of the testing sample diluted with Dulbecco's Phosphate-Buffered Saline (D-PBS). The concentrations of Sample 1 were 10 μM and 100 μM, and the concentrations of Sample 2-8 were 20 μM and 200 μM. The total reaction volume was 5 μL, and each concentration of each sample included 6 groups. After incubating in a 37° C. incubator for 4 hours, 200 μL of thioflavin T working solution (ThT working solution) was added and mixed thoroughly, which the thioflavin T working solution was 10 μM of thioflavin T dissolving in potassium phosphate buffer (PB buffer, pH 6.0). 200 μL of the mixture was placed into a black, clear bottom 96-well plate, and the ThT fluorescence intensity (Ex: 440 nm, Em: 482 nm) was measured to determine the level of Aβ40 aggregation. This experimental example used thioflavin T assay (ThT assay) to evaluate the level of Aβ40 aggregation. Since ThT and Congo red derivatives can form bonds with aggregated form of Aβ protein, the level of Aβ aggregation is higher when the amount of bonded ThT is more. By detecting the variation in the amount of ThT, the change in the level of Aβ aggregation can be estimated. The value of not reacting with any sample (i.e. only containing 0.5 μL of Aβ40 and 4.5 μL of D-PBS, which the final concentration of Aβ40 was 1 mg/mL) was a control and set to 100%, and isoacteoside (IsoA) was used as a positive control. The values of the testing samples were compared to the control and expressed in percentage, and the experiment results are shown in FIGS. 3A-3B. The results shown in FIGS. 3A-3B were mean±standard error of six experimental groups (n=6), and the statistical differences between the control and the testing samples were analyzed by Dunnett's multiple comparison test, which “*” represented p<0.05; “**” represented p<0.01; “***” represented p<0.001; and “****” represented p<0.0001.
(§1) The concentration of Sample 1 was 10 μM, the concentration of Samples 2-9 was 20 μM, and the concentration of IsoA was 10 μg/mL. The measured value of the control without adding any sample was set to 100%, and other values were adjusted accordingly. […] The concentration of Sample 1 was 100 μM, the concentration of Samples 2-9 was 200 μM, and the concentration of IsoA was 100 μg/mL. The measured value of the control without adding any sample was set to 100%, and other values were adjusted accordingly.

Aβ42 = biological target: T1, Aβ42 (Homo sapiens, UniProt P05067); assay: Aβ42 aggregation, thioflavin T assay; type: biochemical; conditions: for inhibition at 20 µM / inhibition at 200 µM: 30 minutes 37° C.; for inhibition at 20 µM: FIG. 4A; for inhibition at 200 µM: FIG. 4B; for inhibit Aβ42 accumulation (ThT assay): summary of Experimental example 4
T1 construct: Aβ42 was redissloved in DMSO to 2.5 mg/mL
T1 sequence (P05067 672-713 limits assumed): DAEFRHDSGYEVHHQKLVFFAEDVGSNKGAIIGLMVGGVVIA
Description: Experimental method: Aβ42 was redissloved in DMSO to 2.5 mg/mL, and Samples 1-9 were diluted with D-PBS to appropriate concentrations. The concentrations of Sample 1 were 10 μM and 100 μM, the concentrations of Sample 2-9 were 20 μM and 200 μM, and the concentrations of IsoA were 10 μg/mL and 100 μg/mL. Each reaction included 1 μL of Aβ42 (final concentration was 0.25 mg/mL) and 9 μL of the testing sample, which each concentration of each sample included 8 groups, and was placed at 37° C. reacting for 30 minutes after thoroughly mixed. 200 μL of Thioflavin T working solution was added and mixed thoroughly after the reaction completed, 200 μL of the which was placed into a black, clear bottom 96-well plate, and the ThT fluorescence intensity (Ex: 440 nm, Em: 482 nm) was measured to determine the level of Aβ42 aggregation. The value of not reacting with any sample (i.e. only containing 1 μL of Aβ42 and 9 μL of D-PBS, which the final concentration of Aβ42 was 0.25 mg/mL) was a control and set to 100%, and isoacteoside (IsoA) was used as a positive control. The values of the samples were compared to the control and expressed in percentage. The experiment results are shown in FIGS. 4A-4B, which show mean±standard error of eight experimental groups (n=8), and the statistical differences between the control and the testing samples were analyzed by Dunnett's multiple comparison test, which “*” represented p<0.05; “**” represented p<0.01; “***” represented p<0.001; and “****” represented p<0.0001.
as §1, with “μg/mL. The level of Aβ42 accumulation was measured by ThT assay, which the measured value” for “μg/mL. The measured value”

[1] = test system: Human retinal pigment epithelium cells (ARPE-19); assay: Protection of ARPE-19 cells against tert-butyl hydroperoxide oxidative damage (MTT); type: cell-based; conditions: 24 hours; for cell viability compared to the control / inhibition of human retinal pigment epithelium cell death: with tBHP, Sample 2 at 6.25, 12.5, 25 μM, Sample 8 at 8.75, 17.5, 35 μM, FIGS. 6A-6B
Description: Human retinal pigment epithelium cells (ARPE-19) were incubated in a DMEM/F12 cell culture medium (Life Technologies) containing 10% of fetal bovine serum (FBS), and were passaged using a 96-well plate after the cell concentration reached 90% full, which each well was seeded with 4.5×10^3 cells. Next day, Samples 2 and 8 were diluted with dimethyl sulfoxide (DMSO) to about 200 times of test concentration, and after that, appropriate amount of DMEM/F12 cell culture medium containing 5% fetal bovine serum was added and diluted to twice test concentration. Then, the resultant was mixed with 0.2 mM of tert-butyl hydroperoxide (tBHP, Sigma) in equal proportions to reach the test concentration (containing 0.5% of dimethyl sulfoxide). The diluted sample was added to the plate with the cells, which was placed in an incubator reacted for 24 hours, and the cell viability was analyzed by MTT solution. The absorbance was measured at a wavelength of 570 nm, and the cells not being treated by the medicine was a control, and the average absorbance of which was set to 100%. The cell viability of the cells being treated by the medicine was calculate by the following formula based on the measured absorbance:
Cell viability=(absorbance of the experimental group/average absorbance of the control)×100%.
The experiment results are shown in FIGS. 6A-6B, which show mean±standard error of six experimental groups (n=6). The statistical differences between damaging group (i.e. accepting damaging medicine, and no protective medicine) and testing medicine groups and the control group (Control, containing 0.5% of DMSO) were analyzed by Dunnett's multiple comparison test, which “*” represented p<0.05; “**” represented p<0.01; “***” represented p<0.001; and “****” represented p<0.0001.

[2] = test system: Aβ40 in SH-SY5Y-APP695 cell medium; assay: Inhibiting Aβ40 accumulation in culture medium of SH-SY5Y-APP695 cells (Human Aβ1-40 immunoassay, with MTT); type: cell-based; conditions: for effects of inhibiting Aβ40 accumulation: preliminary screening at lower concentration (10 and 20 μM), 24 hours
Description: Experimental method: Human neuroblastoma cell (SH-SY5Y-APP695), which expresses Swedish APP695 mutation, was incubated in a 3.5-cm culture dish until the cell concentration reached 90% full. When passage, each well of a 24-well plate was seeded with 4×10^5 cells. The culture medium was replaced with 300 μL of chemical-defined medium, which is a DMEM/F12 medium including 5 mM of Hepes buffer, 0.6% of glucose, 3 mM of NaHCO3, […], 100 μg/mL of transferrin, 20 nM of progesterone, 60 μM putrescine, 30 nM of sodium selenite, and 2 μg/mL of heparin, the next day. 3 μL of the testing sample was added into each well, and each concentration of each sample included 4 groups. After the cells were placed in an incubator (37° C., 5% CO2) and treated with the samples for 24 hours, the culture medium was collected and analyzed the amount of Aβ40 in the culture medium after treated by the samples through Human Aβ1-40 Immunoassay kits (Cat.KHB3482, Life Technologies). The cells treated by the samples were analyzed by MTT assay to evaluate the toxicity to the cells caused by sample treatment.
The testing concentrations of Sample 1 were 5 μM and 10 μM, and the testing concentrations of Samples 2-8 were 10 μM and 20 μM. The amount of Aβ40 in a SH-SY5Y-APP695 cell medium that there was no sample added as a control and set to 100%, and the amounts of Aβ40 in the medium after respectively treated by the testing samples were compared to the control and expressed in percentage. β-secretase inhibitor (β-SI) was used as a positive control. The experiment results are shown in FIGS. 1A-1D, which FIGS. 1A and 1C are result diagrams of the samples in inhibiting Aβ40 accumulation, and FIGS. 1B and 1D are result diagrams of the cell viability after treated by the samples. The results shown in FIGS. 1A-1D are mean±standard error of four experimental groups (n=4), and the statistical differences between the control and the testing samples were analyzed by Dunnett's multiple comparison test, which “*” represented p<0.05; “**” represented p<0.01; “***” represented p<0.001; and “****” represented p<0.0001.
Based on the experiment results of Experimental example 1, Sample 3, 4, and 6 having efficacy of inhibiting Aβ40 accumulation were selected. The testing concentrations of the samples were increased to 20, 50, and 100 μM, and were experimented using the method of Experimental example 1. FIG. 2A is a result diagram of the samples in inhibiting Aβ40 accumulation, and FIG. 2B is a result diagram of the cell viability after treated by the samples. The results shown in FIGS. 2A-2B are mean±standard error of four experimental groups (n=4), and the statistical differences between the control and the testing samples were analyzed by Dunnett's multiple comparison test, which “*” represented p<0.05; “**” represented p<0.01; “***” represented p<0.001; and “****” represented p<0.0001.

[3] = summary of Experimental examples 1 and 2

SMILES | inhibition at 20 µM (Aβ40) [%] | inhibition at 200 µM (Aβ40) [%] | inhibit Aβ40 accumulation (ThT assay) (Aβ40) | inhibition at 20 µM (Aβ42) [%] | inhibit Aβ42 accumulation (ThT assay) (Aβ42) | effects of inhibiting Aβ40 accumulation ([2]; FIGS. 1A-1D) | inhibit Aβ40 formation in cell [2, 3] | further results
C[C@@H]1O[C@@H](O[C@@H]2[C@@H](O)[C@H](OCCc3ccc(O)c(O)c3)O[C@H](COC(=O)/C=C/c3ccc(O)c(O)c3)[C@H]2O)[C@H](O)[C@H](O)[C@H]1O [isoacteoside] | – | – | – | – | – | – | – | activity of inhibiting β-amyloid peptides (Aβ) accumulation (β-amyloid peptides (Aβ)): better
CC(=O)Oc1ccc(/C=C/C(=O)OCC2OC(OCCc3ccc(Cl)cc3)C(OC(C)=O)C(OC(C)=O)C2OC(C)=O)cc1OC(C)=O (stereo not drawn) [Sample 2] | ~20 | ~20 | could effectively inhibit | ~20 | could effectively inhibit | – | – | inhibition at 200 µM (Aβ42): ~40%; cell viability compared to the control [1]: even better then the control; inhibition of human retinal pigment epithelium cell death [1]: could be significantly inhibited
O=C(/C=C/c1ccc(O)c(O)c1)OCC1OC(OCCc2ccc(OCc3ccccc3)cc2)C(O)C(O)C1O (stereo not drawn) [Sample 8] | ~30 | ≤ 70 | could effectively inhibit | ~60 | could effectively inhibit | – | – | comparison among samples, Aβ40 accumulation (ThT assay) (Aβ40; summary): had the best result; comparison among samples, Aβ42 accumulation (ThT assay) (Aβ42; summary): had the best result; cell viability compared to the control [1]: even better then the control; inhibition of human retinal pigment epithelium cell death [1]: could be significantly inhibited
O=C(/C=C/c1ccc(OCc2ccccc2)c(OCc2ccccc2)c1)OCC1OC(OCCc2ccccc2)C(O)C(O)C1O (stereo not drawn) [Sample 3] | – | – | – | – | – | had effects of inhibiting Aβ40 accumulation | could inhibit Aβ40 formation in cell | inhibition at 20 µM ([2]; Homo sapiens, 20 μM, condition of not affecting the cytotoxicity, FIGS. 2A-2B): ~20%; comparison among samples, inhibiting Aβ40 accumulation ([2]; preliminary screening, FIGS. 1A-1D): had the best result of inhibiting Aβ40 accumulation
O=C(/C=C/c1ccc(OCc2ccccc2)c(OCc2ccccc2)c1)OCC1OC(OCCc2cccc(OCc3ccccc3)c2)C(O)C(O)C1O (stereo not drawn) [Sample 6] | – | – | – | – | – | had effects of inhibiting Aβ40 accumulation | could inhibit Aβ40 formation in cell | inhibition at 50 µM ([2]; Homo sapiens, 50 μM, condition of not affecting the cytotoxicity, FIGS. 2A-2B): ~40%; comparison among samples, Aβ40 formation in cell [2, 3]: had the best result
CC(C)(C)OO [tBHP, tert-butyl hydroperoxide, reference compound] | – | – | – | – | – | – | – | cell death ([1]; tBHP alone (0.2 mM mixed in equal proportions)): 30%-40%
O=C(/C=C/c1ccc(O)c(O)c1)OCC1OC(OCCc2ccccc2)C(O)C(O)C1O (stereo not drawn) [Sample 4] | ~30 | ~20 | could effectively inhibit | ~50 | could effectively inhibit | had effects of inhibiting Aβ40 accumulation | could inhibit Aβ40 formation in cell | effect of increasing the sample concentration on inhibiting Aβ accumulation ([2]; 20, 50 and 100 μM, FIGS. 2A-2B): could not further enhance the efficacy of inhibiting Aβ accumulation; inhibition at 200 µM (Aβ42): ~70%
